MIC data for 11 compounds are collected here from US20240270762A1, “PENICILLIN-BINDING PROTEIN INHIBITORS” (priority 2021, published 2024).

Structures are written as SMILES. In brackets after ≈: the same amount, converted by molar mass. Like-named read-outs stand apart in the source and are kept apart here.

For assay [1], the system named is P. aeruginosa ATCC 35151. Description: microbe, parasite or virus in culture. Format: cell-based. Particulars: Pseudomonas aeruginosa, ATCC35151, read-out: Minimum inhibitory concentration, P. aeruginosa ATCC 35151.
For assay [2], the system named is P. aeruginosa (ΔmexAB-oprM). Nature of the assay: Broth microdilution MIC in iron-depleted CAMHB (IDM). The assay is classed as cell-based. Particulars: Pseudomonas aeruginosa; iron-depleted CAMHB (IDM); […]; read-out: Minimum inhibitory concentration, P. aeruginosa ΔmexAB-oprM. A general note: Broth dilution looks for growth in wells or tubes with falling amounts of substance.

Assay [3] deals with A. baumannii CDC-0083. Nature of the assay: microbe, parasite or virus in culture. Format: cell-based. Particulars: Acinetobacter baumannii, CDC0083, read-out: MIC, A. baumannii CDC-0083.
In assay [4] the test system is B. humptydooensis ATCC BAA-2767. Description: microbe, parasite or virus in culture. Format: cell-based. Particulars: Burkholderia humptydooensis, ATCCBAA2767, read-out: Minimum inhibitory concentration (MIC), B. humptydooensis ATCC BAA-2767.
Assay [5] has as its system P. aeruginosa CDC-0110. Nature of the assay: microbe, parasite or virus in culture. Format: cell-based. Conditions: Pseudomonas aeruginosa, CDC0110, read-out: Minimum inhibitory concentration, P. aeruginosa CDC-0110.
The test system of assay [6] is N. gonorrhoeae ATCC 49226. Nature of the assay: Liquid broth MIC in Fastidious broth. Particulars: Neisseria gonorrhoeae.
Assay [7] relates to N. gonorrhoeae WHO G. Nature of the assay: Liquid broth MIC in Fastidious broth. Conditions: Neisseria gonorrhoeae.
For assay [8], the system named is N. gonorrhoeae WHO X. Description: Liquid broth MIC in Fastidious broth. Particulars: Neisseria gonorrhoeae.
The test system of assay [9] is N. gonorrhoeae WHO Z. Nature of the assay: Liquid broth MIC in Fastidious broth. Conditions: Neisseria gonorrhoeae.
Where [10] appears, read: ATCC49226, read-out: Minimum Inhibitory Concentration, ATCC 49226.
Setting [11] is: read-out: Minimum Inhibitory Concentration, WHO G.
[12] abbreviates: read-out: Minimum Inhibitory Concentration, WHO X.
Setting [13] is: read-out: Minimum Inhibitory Concentration, WHO Z.

Turning to `CS(=O)(=O)N1CCN(C(=O)N[C@@H](C(=O)N[C@H]2Cc3cccc(C(=O)O)c3OB2O)c2ccc(P(=O)(O)O)cc2)C1=O` (single isomer, unassigned) [Example 6], the MIC is 2 to 4 µg/mL (≈ 3.28 to 6.55 µM) in assay [1]; 8 to 16 µg/mL (≈ 13.1 to 26.2 µM) in assay [2]; over 128 µg/mL in assay [3]; 2 to 4 µg/mL (≈ 3.28 to 6.55 µM) in [4]; 32 to 64 µg/mL (≈ 52.4 to 105 µM) in [5]; under 1 µg/mL in assay [6] (ATCC49226, read-out: Minimum Inhibitory Concentration (MIC), N. gonorrhoeae ATCC 49226). The MIC in assay [7] (read-out: Minimum Inhibitory Concentration (MIC), N. gonorrhoeae WHO G) was under 1 µg/mL; in [8] (read-out: Minimum Inhibitory Concentration (MIC), N. gonorrhoeae WHO X) it was under 1 µg/mL; in [9] (read-out: Minimum Inhibitory Concentration (MIC), N. gonorrhoeae WHO Z), under 1 µg/mL.

Regarding `O=C(NCCCS(=O)(=O)N1CCN(C(=O)NC(C(=O)N[C@H]2Cc3ccc(F)c(C(=O)O)c3OB2O)c2cc(F)c(O)c(O)c2Cl)C1=O)Nc1cccc(O)c1` (stereo partly drawn) [Example 277, (3R)-3-(2-(2-chloro-5-fluoro-3,4-dihydroxyphenyl)-2-(3-((3-(3-(3-hydroxyphenyl)ureido)propyl)sulfonyl)-2-oxoimidazolidine-1-carboxamido)acetamido)-7-fluoro-2-hydroxy-3,4-dihydro-2H-benzo[e][1,2]oxaborinine-8-carboxylic acid], the MIC in [1] was under 1 µg/mL; in assay [2] it was under 1 µg/mL; in assay [3], under 1 µg/mL; in assay [4] it was over 128 µg/mL; in assay [5], 8 to 16 µg/mL (≈ 9.87 to 19.7 µM); in assay [6] (setting [10]), 16 to 32 µg/mL (≈ 19.7 to 39.5 µM). The MIC in assay [7] (setting [11]) was 16 to 32 µg/mL (≈ 19.7 to 39.5 µM); in [8] (setting [12]), over 64 µg/mL; in assay [9] (setting [13]), 16 to 32 µg/mL (≈ 19.7 to 39.5 µM).

`O=C(NCCCS(=O)(=O)N1CCN(C(=O)NC(C(=O)N[C@H]2Cc3ccc(F)c(C(=O)O)c3OB2O)c2cc(F)c(O)c(O)c2Cl)C1=O)Nc1cccnc1` (stereo partly drawn) [Example 278, (3R)-3-(2-(2-chloro-5-fluoro-3,4-dihydroxyphenyl)-2-(2-oxo-3-((3-(3-(pyridin-3-yl)ureido)propyl)sulfonyl)imidazolidine-1-carboxamido)acetamido)-7-fluoro-2-hydroxy-3,4-dihydro-2H-benzo[e][1,2]oxaborinine-8-carboxylic acid]: the MIC in [1] is under 1 µg/mL; in [2] it was under 1 µg/mL; in [3] it was under 1 µg/mL; in [4], 2 to 4 µg/mL (≈ 2.51 to 5.03 µM); in [5], 2 to 4 µg/mL (≈ 2.51 to 5.03 µM); in [6] (setting [10]), 16 to 32 µg/mL (≈ 20.1 to 40.2 µM). In addition, the MIC is 16 to 32 µg/mL (≈ 20.1 to 40.2 µM) in assay [7] (setting [11]), over 64 µg/mL in [8] (setting [12]) and 16 to 32 µg/mL (≈ 20.1 to 40.2 µM) in assay [9] (setting [13]).

Consider `O=C(NCCN1CCN(C(=O)N[C@@H](C(=O)N[C@H]2Cc3ccc(F)c(C(=O)O)c3OB2O)c2cc(F)c(O)c(O)c2Cl)C1=O)Nc1ccc(O)cc1` [Example 279, (R)-3-((R)-2-(2-chloro-5-fluoro-3,4-dihydroxyphenyl)-2-(3-(2-(3-(4-hydroxyphenyl)ureido)ethyl)-2-oxoimidazolidine-1-carboxamido)acetamido)-7-fluoro-2-hydroxy-3,4-dihydro-2H-benzo[e][1,2]oxaborinine-8-carboxylic acid], for which the MIC in [1] was under 1 µg/mL; in [2] it was under 1 µg/mL; in assay [3], under 1 µg/mL; in [4], under 1 µg/mL; in assay [5] it was under 1 µg/mL; in assay [6] (setting [10]) it was 4 to 8 µg/mL (≈ 5.46 to 10.9 µM). For the same compound, the values for the MIC in assay [7] (setting [11]), in [8] (setting [12]) and in assay [9] (setting [13]) were 4 to 8 µg/mL (≈ 5.46 to 10.9 µM), over 64 µg/mL and 4 to 8 µg/mL (≈ 5.46 to 10.9 µM), respectively.

On to `O=C(NCCCN1CCN(C(=O)N[C@@H](C(=O)N[C@H]2Cc3ccc(F)c(C(=O)O)c3OB2O)c2cc(F)c(O)c(O)c2Cl)C(=O)C1=O)c1cc(F)c(O)c(F)c1` [Example 422, (R)-3-((R)-2-(2-chloro-5-fluoro-3,4-dihydroxyphenyl)-2-(4-(3-(3,5-difluoro-4-hydroxybenzamido)propyl)-2,3-dioxopiperazine-1-carboxamido)acetamido)-7-fluoro-2-hydroxy-3,4-dihydro-2H-benzo[e][1,2]oxaborinine-8-carboxylic acid], for which the MIC in assay [1] is under 1 µg/mL; in [2], under 1 µg/mL; in [3], over 128 µg/mL; in assay [4] it was under 1 µg/mL; in [5], under 1 µg/mL.

As for `O=C(NCCCN1CCN(C(=O)NC(C(=O)N[C@H]2Cc3ccc(F)c(C(=O)O)c3OB2O)c2cc(F)c(O)c(O)c2Cl)C(=O)C1=O)c1cc(O)cc(O)c1` (stereo partly drawn) [Example 423, (3R)-3-(2-(2-chloro-5-fluoro-3,4-dihydroxyphenyl)-2-(4-(3-(3,5-dihydroxybenzamido)propyl)-2,3-dioxopiperazine-1-carboxamido)acetamido)-7-fluoro-2-hydroxy-3,4-dihydro-2H-benzo[e][1,2]oxaborinine-8-carboxylic acid], the MIC in assay [1] is under 1 µg/mL; in assay [2], under 1 µg/mL; in [3], over 128 µg/mL; in assay [4], under 1 µg/mL; in assay [5], under 1 µg/mL.

Take `O=C(O)c1c(F)ccc2c1OB(O)[C@@H](NC(=O)C(NC(=O)N1CCN(C3CCN(C(=O)Nc4cccc(O)c4)CC3)C(=O)C1=O)c1cc(F)c(O)c(O)c1Cl)C2` (stereo partly drawn) [Example 424, (3R)-3-(2-(2-chloro-5-fluoro-3,4-dihydroxyphenyl)-2-(4-(1-((3-hydroxyphenyl)carbamoyl)piperidin-4-yl)-2,3-dioxopiperazine-1-carboxamido)acetamido)-7-fluoro-2-hydroxy-3,4-dihydro-2H-benzo[e][1,2]oxaborinine-8-carboxylic acid]: the MIC is under 1 µg/mL in assay [1]; under 1 µg/mL in assay [2]; 2 to 4 µg/mL (≈ 2.5 to 4.99 µM) in assay [3]; 2 to 4 µg/mL (≈ 2.5 to 4.99 µM) in assay [4]; under 1 µg/mL in assay [5].

Take `O=C(O)c1c(F)ccc2c1OB(O)[C@@H](NC(=O)C(NC(=O)N1CCN(C3CCN(C(=O)c4cncc(O)c4)CC3)C(=O)C1=O)c1cc(F)c(O)c(O)c1Cl)C2` (stereo partly drawn) [Example 425, (3R)-3-(2-(2-chloro-5-fluoro-3,4-dihydroxyphenyl)-2-(4-(1-(5-hydroxynicotinoyl)piperidin-4-yl)-2,3-dioxopiperazine-1-carboxamido)acetamido)-7-fluoro-2-hydroxy-3,4-dihydro-2H-benzo[e][1,2]oxaborinine-8-carboxylic acid]: the MIC in assay [1] was under 1 µg/mL; in [2], under 1 µg/mL; in assay [3], 8 to 16 µg/mL (≈ 10.2 to 20.3 µM); in assay [4] it was under 1 µg/mL; in [5], under 1 µg/mL.

With `O=C(O)c1c(F)ccc2c1OB(O)[C@@H](NC(=O)C(NC(=O)N1CCN(C3CCN(S(=O)(=O)c4cccc(O)c4)CC3)C(=O)C1=O)c1cc(F)c(O)c(O)c1Cl)C2` (stereo partly drawn) [Example 428, (3R)-3-(2-(2-chloro-5-fluoro-3,4-dihydroxyphenyl)-2-(4-(1-((3-hydroxyphenyl)sulfonyl)piperidin-4-yl)-2,3-dioxopiperazine-1-carboxamido)acetamido)-7-fluoro-2-hydroxy-3,4-dihydro-2H-benzo[e][1,2]oxaborinine-8-carboxylic acid], the MIC is under 1 µg/mL in assay [1]; under 1 µg/mL in [2]; 8 to 16 µg/mL (≈ 9.73 to 19.5 µM) in assay [3]; over 128 µg/mL in assay [4]; under 1 µg/mL in [5].

Regarding `O=C(O)c1c(F)ccc2c1OB(O)[C@@H](NC(=O)C(NC(=O)N1CCN(C3CCN(S(=O)(=O)c4ccc(O)cc4)CC3)C(=O)C1=O)c1cc(F)c(O)c(O)c1Cl)C2` (stereo partly drawn) [Example 429, (3R)-3-(2-(2-chloro-5-fluoro-3,4-dihydroxyphenyl)-2-(4-(1-((4-hydroxyphenyl)sulfonyl)piperidin-4-yl)-2,3-dioxopiperazine-1-carboxamido)acetamido)-7-fluoro-2-hydroxy-3,4-dihydro-2H-benzo[e][1,2]oxaborinine-8-carboxylic acid], the MIC in assay [1] is under 1 µg/mL; in [2], under 1 µg/mL; in [3], 8 to 16 µg/mL (≈ 9.73 to 19.5 µM); in [4] it was over 128 µg/mL; in assay [5], under 1 µg/mL.

Turning to `O=C(NCCCN1CCN(C(=O)NC(C(=O)N[C@H]2Cc3ccc(F)c(C(=O)O)c3OB2O)c2cc(F)c(O)c(O)c2Cl)C(=O)C1=O)c1ccnc(F)c1` (stereo partly drawn) [Example 466, (3R)-3-(2-(2-chloro-5-fluoro-3,4-dihydroxyphenyl)-2-(4-(3-(2-fluoroisonicotinamido)propyl)-2,3-dioxopiperazine-1-carboxamido)acetamido)-7-fluoro-2-hydroxy-3,4-dihydro-2H-benzo[e][1,2]oxaborinine-8-carboxylic acid], the MIC in assay [1] is under 1 µg/mL; in assay [2], under 1 µg/mL; in [3], 2 to 4 µg/mL (≈ 2.62 to 5.24 µM); in assay [4], 8 to 16 µg/mL (≈ 10.5 to 21 µM); in [5], under 1 µg/mL.
